The test system of one assay is human HCT116 cells. Briefly: Telomere length in continuously growing HCT116 cells. Type of assay: cell-based. The conditions noted are these: KU55933.
Assay [1] concerns SL13 cells. Description: Telomere length by Southern blot in continuously growing SL13 cells. In kind it is cell-based, mouse. Here is the method:
Given that ATM inhibitor KU55933 treatment prevents telomere elongation by telomerase overexpression, whether KU55933 treatment shortens telomere lengths in continuously growing cells was tested. […] The distinct non-telomeric bands served as useful loading controls, confirming all lanes were equally loaded (FIG. 9B, pixel position 1 and 3).
Cell lines such as 293FT and HCT116 were grown in DMEM (Gibco) supplemented with 1% Penicillin/Streptomycin/Glutamine (PSG) and 10% heat inactivated FBS (Invitrogen). SL13 cells were grown in DMEM (Gibco) supplemented with 1% PSG and 10% Tet system approved FBS (Clontech, #631107). Final concentration of 2 μg/ml of doxycycline was added in the media to induce I-Sce1 expression. Typically cells were collected post 48 hours of doxcycline treatment. […]
(§1) To measure telomere lengths by Southern blot, genomic DNA was extracted from cell pellets collected at different population doublings using the Puregene Core Kit A™ (Qiagen). […] Labeled probe was counted and 10^6 counts/ml (telomere probe) or 10^4 counts/ml (ladder) was denatured at 100° C. for 5 minutes and added to the pre-hybridization solution and hybridized overnight at 65° C. Membranes were washed 3× 15 minutes each in 6× SSC and 1% SDS at 65° C., and 3× 15 minutes each in 1× SSC and 1% SDS at 65° C. and exposed to a phosphorimager screen and detected on a Fuji phosphorimager. […]

For assay [2], the system named is SL13 cells. Briefly: Telomere Southern blot after telomerase (mTR and mTERT) overexpression. In kind it is cell-based, mouse. The conditions noted are these: lentivirus expressing mTR and mTERT, 2 or 5 days in culture. The method, then:
To examine the role of ATM in telomere elongation by an independent method, telomerase was overexpressed in the cell line, in the presence of ATM inhibition. It has been shown that overexpressing telomerase elongates telomere lengths in human cells. Cells were treated with KU55933 and then transduced with a lentivirus expressing both mTR and mTERT and grown for 2 or 5 days in culture and telomere lengths were assayed by Southern blot. Telomere lengths in cells overexpressing telomerase were rapidly elongated in just 5 days (data not shown). […] In addition, as discussed below, when cells are grown for several days, ATR may also compensate for the loss of ATM. […]
as §1

Consider `O=c1cc(-c2cccc3c2Sc2ccccc2S3)oc(N2CCOCC2)c1` [KU55933], for which the “telomere lengths with increasing cell PDs” value in the assay with human HCT116 cells is “shortened significantly”. The “telomere lengths at various population doublings” value with SL13 cells [1] (SL13 cells, 10 μM KU55933) is “gradually shortened with increasing cell PDs”. Also, the “telomere elongation by telomerase overexpression” value in the assay with SL13 cells [2] is listed as “significantly blocked the telomere elongation”.
Take `O=C(c1cc(Cc2n[nH]c(=O)c3ccccc23)ccc1F)N1CCN(C(=O)C2CC2)CC1` [Olaparib]: the “telomere length at various PDs” value in the assay with SL13 cells [1] (SL13 cells grown in the presence of Olaparib, Southern blot) is given as “gradually increased after 25 PDs”.
